Calls of active or inactive are those of the source. No cut-off for these calls is given here.
Tests used:
[1] = Toxicity in iv dosed CD1 mouse administered Q2D for 8 days; assay type: organism-based; conditions: CD1, mouse, in vivo
[2] = Plasma concentration in CD1 mouse at 1 mg/kg, iv administered as single dose measured after 5 mins; assay type: ADME, organism-based; design: dose 1 mg/kg, route intravenous
[3] = Plasma concentration in CD1 mouse at 1 mg/kg, iv administered as single dose measured after 30 mins; assay type: ADME, organism-based; design: dose 1 mg/kg, route intravenous
[4] = Plasma concentration in CD1 mouse at 1 mg/kg, iv administered as single dose measured after 120 mins; assay type: ADME, organism-based; design: dose 1 mg/kg, route intravenous
SK-MEL-2 = assay: Antitumor activity against human SK-MEL-2 cells xenografted in athymic nu/nu Harlan mouse assessed as tumor growth inhibition at 8 mg/kg, ip administered Q4D for 3 days relative to control; assay type: functional, organism-based; design: dose 8 mg/kg

Compound | MTD at 192 h [1] [mg/kg] | concentration at 5 min [2] [µM] | concentration at 0.5 h [3] [µM] | concentration at 2 h [4] [µM] | TGI (SK-MEL-2)
CO[C@H](C(=O)[C@@H](O)[C@@H](C)O)[C@@H]1Cc2cc3cc(O[C@H]4C[C@@H](O[C@H]5C[C@@H](O)[C@H](O)[C@@H](C)O5)[C@H](O)[C@@H](C)O4)c(C)c(O)c3c(O)c2C(=O)[C@H]1O[C@H]1C[C@@H](O[C@H]2C[C@@H](O[C@H]3C[C@](C)(O)[C@H](O)[C@@H](C)O3)[C@@H](O)[C@@H](C)O2)[C@H](O)[C@@H](C)O1 [PLICAMYCIN] | 0.6 | 2.7 | 0.2 | < 0.1 | –
COc1cccc2c1C(=O)c1c(O)c3c(c(O)c1C2=O)C[C@@](O)(C(=O)CO)C[C@@H]3O[C@H]1C[C@H](N)[C@H](O)[C@H](C)O1 | – | – | – | – | Active
